Laboratory results as given in patent US20240199555A1, “APPLICATIONS OF BIASED LIGANDS OF THE SEROTONIN 5-HT7 RECEPTOR FOR THE TREATMENT OF PAIN, MULTIPLE SCLEROSIS AND THE CONTROL OF THERMOREGULATION” (Centre National de la Recherche Scientifique, priority 2021, published 2024).

Tests used:
C57BL/6 mice = experiment: Spared Nerve Injury (SNI) neuropathic pain model, Von Frey; settings: s.c.
Protocol: Pregabalin, vehicle or compounds solutions are subcutaneously administrated for 8 consecutive days. • (A) Mechanical response threshold after the first administration (D+10). […] Positive control animals were treated with Pregabalin (5 mg/kg, sc). Statistical differences are indicated compared to vehicle group (Two-way RM ANOVA followed by Bonferroni post-hoc test: ***p<0.001, ** p<0.01, * p<0.05). […] Positive control animals were treated with Pregabalin (5 mg/kg, sc). Statistical differences are indicated compared to vehicle group (Two-way RM ANOVA followed by Bonferroni post-hoc test: ***p<0.001, ** p<0.01, * p<0.05). […] (Two-way RM ANOVA followed by Bonferroni post-hoc test: ***p<0.001, ** p<0.01, * p<0.05)
MOA51 and Serodolin (AIC01) compounds were diluted in NDT solution (NaCl 0.9%—DMSO 20%—Tween80 5%). […] AIC01 was resuspended at 0.5 mg/mL and administrated at a ratio of 100 μl per 10 g (dose of 5 mg/kg).
Experiment starts with 8 weeks old male C57B16J mice (from Charles River). Study was performed on 40 mice (2 mice were excluded during the study due to health guidelines) divided in 4 randomized groups. • Group A: s.c. injection at 5 mg/kg of pregabalin. • Group B: s.c. injection at 0.5 mg/kg of MOA51. • Group C: s.c. injection at 5 mg/kg of Serodolin (AIC01). • Group D: s.c. injection of NDT solution (referred as Vehicle hereafter).
Compounds solutions, pregabalin and vehicle were subcutaneously administrated (100 μl/10 g) for 9 consecutive days, starting 10 days after surgery. Ligature and transection of the common peroneal and tibial distal branches of the sciatic nerve was made leaving the sural branch intact. 7 days post-surgery, a decrease of threshold response to Von Frey filaments of ipsilateral hind-paw was observed corresponding to neuropathic pain apparition (mechanical allodynia). Mechanical threshold response of mice were measured with calibrated Von Frey filaments using the up/down method. Experimenter was blind to mice treatment. Measures are performed as follow: one baseline measure before surgery, one measure at D+10, D+12, D+14, D+16 and D+18 before drug's administration, and 1 h, 2 h post-drug administration. A supplementary measure 4 h post-drug administration was performed at D+10 and D+18.
Two-way RM ANOVA (followed by Bonferroni post-hoc test) was used to analysed time course response at D+10 and D+18. Area under the curve was determined with the 1 h and 2 h post-drug administration measures to investigated tolerance of repeated administration of compounds

mice [1] = experiment: Acetic acid-induced writhing test; format: in vivo
Protocol: (§1) FIG. 9: Analgesic effect of Serodolin in the acetic acid-induced writhing test. In this test, nociception was induced by an intraperitoneally injection (ip) of 0.1 ml/10 g acid acetic solution (10 ml/kg) in peripheral origin. Serodolin at increasing dosage was administrated by oral (po), intravenous (iv) or subcutaneous (sc) route before acid acetic injection (upper panel). Positive control animals were pretreated morphine (3 mg/kg, sc) 10 minutes before acetic acid. Five minutes after i.p. injection of acetic acid the number of writhing was recorded for 10 minutes. Data mean±SEM of values obtained from a representative experiment (n=10 animals/group). ****p<0.0001 ***p<0.001 **p<0.01 *p<0.05 as compared with the control group (Vh).
as §1, with “16:” for “9:”, “MOA51” for “Serodolin”, “i.p.injection” for “i.p. injection”, “animals/group).” for “animals/group). ****p<0.0001 ***p<0.001”, “**p<0.01” for “**p<0.01 *p<0.05”
Writhing tests: Mice (25-35 g). Groups of mice (n=10) received by oral, subcutaneous or intravenous route Serodolin at different doses (0.1-10 mg/kg) one hour before intraperitoneally injection of 1% acetic acid in a volume of 10 ml/kg. Control group received vehicle (10 ml/kg, solution of 20% DMSO and 5% tween 80). The test was carried out 5 minutes later after acid acetic injection. The characteristic writhing responses have been observed individually and counted for 10 minutes.
Analgesic activity was first evaluated using the acetic acid abdominal constriction test (writhing test), a chemical model of visceral pain. We evaluated the dose-response effect of Serodolin following single oral, intravenous and subcutaneous administration of the compound one hour before injection of acetic acid.
Analgesic activity was evaluated using the acetic acid abdominal constriction test (writhing test), a chemical model of visceral pain. We evaluated the dose-response effect of MOA51 following single oral, intravenous and subcutaneous administration of the compound one hour before injection of acetic acid. MOA51 administered by the oral route induced statistically significant dose-dependent decreases in the number of writhings at and above the dose of 1 mg/kg. By the intravenous route, MOA51 induced dose-dependent decreases in the number of writhings at and above the dose of 0.1 mg/kg.

human 5-HT1A receptor = human 5-HT1A receptor (Homo sapiens (Human), UniProt P08908); experiment: Radioligand binding competition, 5-HT1A; settings: selectivity panel
human 5-HT1A receptor, sequence (P08908 whole entry): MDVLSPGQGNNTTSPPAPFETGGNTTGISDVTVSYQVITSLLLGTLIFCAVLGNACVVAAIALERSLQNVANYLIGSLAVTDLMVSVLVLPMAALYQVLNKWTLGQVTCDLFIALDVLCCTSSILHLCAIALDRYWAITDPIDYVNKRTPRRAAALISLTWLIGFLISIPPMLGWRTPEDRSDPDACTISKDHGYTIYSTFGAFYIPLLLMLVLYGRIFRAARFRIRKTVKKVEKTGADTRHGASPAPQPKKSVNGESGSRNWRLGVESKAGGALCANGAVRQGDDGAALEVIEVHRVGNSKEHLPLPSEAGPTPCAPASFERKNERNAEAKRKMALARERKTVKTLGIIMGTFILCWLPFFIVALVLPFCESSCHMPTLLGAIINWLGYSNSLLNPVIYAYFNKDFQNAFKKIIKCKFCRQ
Protocol: FIG. 14: Testing of 8 molecules for radioligand binding competition activity on recombinant human 5-HT1A, 5-HT2A, 5-HT2Cedited, 5-HT6, 5-HT7 and D2(long) receptors using filtration binding assays.
Radioligand Binding experiments were conducted with Epics Therapeutics membrane preparations. Receptor accession numbers, cellular background and reference compounds are shown in this table.
The new compounds have been tested by radioligand binding competition activity at the human 5-HT1A (FAST-0500B), 5-HT2A (FAST-0505B), 5-HT2Cedited (FAST-0507B), 5-HT6 (FAST-0509B), 5-HT7a (FAST-05111B) and D2(long) (FAST-0101B) receptors at seven (7) concentrations, in duplicate. […] Reference values thus obtained for the test were compared to historical values obtained from the same receptor and used to validate the experimental session. For replicate determinations, the maximum variability tolerated in the test was of +/−20% around the average of the replicates.
Dose-response data from test compounds were analyzed with XLfit (IDBS) software using nonlinear regression applied to a sigmoidal dose-response model and the following equation: • XL Fit fit Model 203: 4 Parameter Logistic Model • A: Bottom • B: TOP • C: LogEC50 • D: Hill

mice [2] = experiment: MOG-induced experimental autoimmune encephalomyelitis (EAE) model; format: in vivo; settings: 1 mg/kg, ip, day 8 to day 18
Source text: FIG. 12: Evaluation of the therapeutic potential of Serodolin in EAE model. A/Serodolin has been administrated for 10 days from day 8 after immunization. After 18 days post-immunization, myelin staining and cell infiltration have been evaluated in 3 groups of mice (non-immunized NI, Vehicle-treated mice or Serodolin-treated mice. B/Immunolabeling of astrocytes (GFAP) and microglia (Iba1) performed in all groups. Quantifications used Image J software. **p<0.01 *p<0.05.
Autoimmune experimental encephalomyelitis (EAE) model. For EAE model, the pathology was induced by subcutaneous injection of an emulsion of MOG35-55 peptide in complete Freund's adjuvant as previously described (Terry, Ifergan, & Miller, 2016). The mice were scored blindly once a day starting at Day 7 postimmunization until Day 30 according to the following scale: 0.0=no obvious changes in motor function; 0.5=tip of tail is limp; 1.0=limp tail; 1.5=limp tail and hind leg inhibition; 2.0=limp tail and weakness of hind legs or signs of head tilting; 2.5=limp tail and dragging of hind legs or signs of head tilting; 3.0=limp tail and complete paralysis of hind legs or limb tail with paralysis of one front and one hind leg; 3.5=limp tail and complete paralysis of hind legs and animal unable to right itself when placed on its side; 4.0=limb tail, complete hind leg, and partial front leg paralysis with minimal moving and feeding. Drugs were administered at the onset of clinical symptoms (Day 8) until Day 18 after immunization. Serodolin (1 mg/kg, ip) or vehicle was daily administered. Mice were given Ketamine/Xylasine anaesthesia and then intracardiacally perfused first with PBS EDTA for 20-30 min and then with PFA (paraformaldehyde) 4% for 20-30 min. Spinal cords were removed and incubated first in PFA 4% for 48-72 h and then in sucrose 30% Organ was included in TFM (Tissue freezing media) and snap frozen using isopentane and dry ice. Spinal cord were cut on 14 μm thick sections using Leica CM3050 S Research Cryostat for immunohistochemistry experiments.
The inventors considered that Serodolin could have some benefit effects on some chronic inflammatory processes, like those observed in MS. Myelin oligodendrocyte glycoprotein (MOG)-induced murine experimental autoimmune encephalomyelitis (EAE) is a widely accepted model for studying the clinical and pathological features of multiple sclerosis. After MOG induction of EAE (9 animals/group), the effect of AIC-01 injection was tested for […] (1 mg/kg, ip from day 8 to day 18 after MOG induction). Each animal was assessed by a behavioural test based on motor functions, and an EAE score was obtained. […] Histopathological characteristics performed after MOG-induction allowed to decipher Serodolin effect at molecular and cellular levels. […]

## O=c1[nH]c2ccccc2n1CN1CCN(c2ccc(F)cc2)CC1 [Serodolin]
C57BL/6 mice; 9 consecutive days
  tolerance after repetitive administration (AUC): didn't present any tolerance effect after repetitive administration
C57BL/6 mice; first (D+10) and last (D+18) administration, 1 h and 2 h
  mechanical response threshold vs vehicle: significant increase of the mechanical threshold response
Mice [1]; at the highest dosage
  inhibition of the writhing assay response: up to 87%
Mice [1]; s.c., one hour before acetic acid
  dose giving significant decrease in number of writhings, subcutaneous route: 0.1 mg/kg
Human 5-HT1A receptor; read-out: RLB 5-HT1A IC50
  IC50: 203 nM
Human 5-HT1A receptor; read-out: RLB 5-HT1A Ki
  Ki: 102 nM
Mice [2]
  EAE score / onset of symptoms: tended to show a delay in the onset of symptoms
  astrocytes and microglia staining: significantly decreased
  cell infiltration (DAPI): reduces cell infiltration
  myelin staining, increase over vehicle-treated animals: 65%
